According to patent US20240116985A1, “STAPLED PEPTIDES AND METHODS THEREOF” (priority 2020, published 2024):
pIC50: −log10 of the molar value.

Experiments:
[1] = target: T1, beta-catenin/TCF4 engagement (Homo sapiens, UniProt P35222); test: Nano-BRET target engagement assay (B-cat-Halo & TCF4-Luc in HEK293 cells); type: cell-based; conditions: absolute IC50; read-out: NanoBRET Abs IC50
T1 construct: expressed in transfected cells; host or cells: HEK293
T1 sequence (P35222 1-781): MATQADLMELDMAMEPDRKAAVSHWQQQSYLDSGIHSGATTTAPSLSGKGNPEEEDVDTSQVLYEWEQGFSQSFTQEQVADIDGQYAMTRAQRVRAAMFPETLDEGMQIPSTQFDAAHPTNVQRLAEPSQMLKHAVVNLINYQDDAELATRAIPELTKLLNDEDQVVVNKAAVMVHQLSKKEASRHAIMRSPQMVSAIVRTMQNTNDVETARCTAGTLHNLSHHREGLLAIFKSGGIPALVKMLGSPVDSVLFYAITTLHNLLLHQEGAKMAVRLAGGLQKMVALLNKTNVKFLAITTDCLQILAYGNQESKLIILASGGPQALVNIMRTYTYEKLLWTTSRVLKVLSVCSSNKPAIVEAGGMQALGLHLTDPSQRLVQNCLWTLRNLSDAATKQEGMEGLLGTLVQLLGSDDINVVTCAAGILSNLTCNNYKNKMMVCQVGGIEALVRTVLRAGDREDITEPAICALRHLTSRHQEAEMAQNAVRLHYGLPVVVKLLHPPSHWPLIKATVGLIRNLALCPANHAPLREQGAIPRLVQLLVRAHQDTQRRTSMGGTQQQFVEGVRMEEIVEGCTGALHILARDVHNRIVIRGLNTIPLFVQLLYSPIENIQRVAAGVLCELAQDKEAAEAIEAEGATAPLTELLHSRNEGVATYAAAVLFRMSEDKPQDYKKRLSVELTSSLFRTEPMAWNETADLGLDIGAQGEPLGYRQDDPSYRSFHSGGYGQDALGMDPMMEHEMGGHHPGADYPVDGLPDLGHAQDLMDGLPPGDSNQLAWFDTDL

[2] = target: T2, full-length beta-Catenin (Uniprot ID P35222) (Homo sapiens, UniProt P35222); test: Fluorescence polarization IC50 (beta-catenin / 5FAM-TCF4 10-53 competition); type: binding; conditions: fluorescence polarization; read-out: beta-Catenin FP IC50
T2 construct: 10 nM full-length beta-Catenin (Uniprot ID P35222)
T2 sequence (P35222 1-781): T1 sequence (P35222 1-781)

pIC50 [1] | pIC50 [2] | SMILES
5.27 | 7.73 | CC(=O)N1CCC[C@]12CC=CCCCC1(CCCC=CCCCOC(=O)N3CC[C@@](C(=O)N[C@@H](Cc4ccsc4)C(=O)N[C@@H](Cc4csc5ccccc45)C(=O)N[C@@H](CCC(N)=O)C(=O)N4CCC[C@H]4CO)(C3)NC(=O)[C@H](CC(C)C)NC(=O)[C@H](Cc3ccccc3)NC(=O)[C@H](C)NC(=O)[C@H](C)NC(=O)[C@H](CN(CC(=O)O)CC(F)(F)F)NC(=O)[C@H](CC(=O)O)NC1=O)NC(=O)[C@H](CC(C)(C)C)NC(=O)[C@H](CC(=O)O)NC2=O (stereo partly drawn) [I-1681, Ac-PL3-Asp-Npg-B5-Asp-TfeGA-Ala-Ala-Phe-Leu-PyrS2-3Thi-BztA-Gln-Proo1]
5.43 | 8.05 | CC(=O)N1CCC[C@]12CC=CCCCC1(CCCC=CCCCOC(=O)N3CC[C@@](C(=O)N[C@@H](Cc4ccsc4)C(=O)N[C@@H](Cc4csc5ccccc45)C(=O)N[C@@H](CCC(N)=O)C(=O)N[C@H](CO)[C@@H](C)O)(C3)NC(=O)[C@H](CC(C)C)NC(=O)[C@H](Cc3ccccc3)NC(=O)[C@H](C)NC(=O)[C@H](C)NC(=O)[C@H](CN(CC(=O)O)CC(F)(F)F)NC(=O)[C@H](CC(=O)O)NC1=O)NC(=O)[C@H](CC(C)(C)C)NC(=O)[C@H](CC(=O)O)NC2=O (stereo partly drawn) [I-1683, Ac-PL3-Asp-Npg-B5-Asp-TfeGA-Ala-Ala-Phe-Leu-PyrS2-3Thi-BztA-Gln-Thro1]
5.27 | 7.96 | CC(=O)N1CCC[C@]12CC=CCCCC1(CCCC=CCCCOC(=O)N3CC[C@@](C(=O)N[C@@H](Cc4ccccc4Cl)C(=O)N[C@@H](Cc4csc5ccccc45)C(=O)N[C@@H](CCC(N)=O)C(N)=O)(C3)NC(=O)[C@H](CC(C)C)NC(=O)[C@H](Cc3ccccc3)NC(=O)[C@H](C)NC(=O)C(C)(C)NC(=O)[C@H](Cc3cccc(C(=O)O)c3)NC(=O)[C@H](CC(=O)O)NC1=O)NC(=O)[C@H](CC(C)(C)C)NC(=O)[C@H](CC(=O)O)NC2=O (stereo partly drawn) [I-1686, Ac-PL3-Asp-Npg-B5-Asp-3COOHF-Aib-Ala-Phe-Leu-PyrS2-2C1F-BztA-Gln-NH2]
4.73 | 7.38 | CC(=O)N1CCC[C@]12CC=CCCCC1(CCCC=CCCCOC(=O)N3CC[C@@](C(=O)N[C@@H](Cc4ccccc4Cl)C(=O)N[C@@H](Cc4csc5ccccc45)C(=O)N[C@@H](CCC(N)=O)C(N)=O)(C3)NC(=O)[C@H](CC(C)C)NC(=O)[C@H](Cc3ccccc3)NC(=O)CNC(=O)[C@H](C)NC(=O)[C@H](Cc3cccc(C(=O)O)c3)NC(=O)[C@H](CC(=O)O)NC1=O)NC(=O)[C@H](CC(C)(C)C)NC(=O)[C@H](CC(=O)O)NC2=O (stereo partly drawn) [I-1687, Ac-PL3-Asp-Npg-B5-Asp-3COOHF-Ala-Gly-Phe-Leu-PyrS2-2C1F-BztA-Gln-NH2]
4.67 | 7.23 | CCCC[C@@H]1NC(=O)[C@H](Cc2cccc(C(=O)O)c2)NC(=O)[C@H](CC(=O)O)NC(=O)C2(CCCC=CCCCOC(=O)N3CC[C@@](C(=O)N[C@@H](Cc4ccccc4Cl)C(=O)N[C@@H](Cc4csc5ccccc45)C(=O)N[C@@H](CCC(N)=O)C(N)=O)(C3)NC(=O)[C@H](CC(C)C)NC(=O)[C@H](Cc3ccccc3)NC(=O)CNC1=O)CCCC=CC[C@]1(CCCN1C(C)=O)C(=O)N[C@@H](CC(=O)O)C(=O)N[C@@H](CC(C)(C)C)C(=O)N2 (stereo partly drawn) [I-1688, Ac-PL3-Asp-Npg-B5-Asp-3COOHF-nLeu-Gly-Phe-Leu-PyrS2-2C1F-BztA-Gln-NH2]
4.90 | 7.59 | CC(=O)N1CCC[C@]12CC=CCCCC1(CCCC=CCCCOC(=O)N3CC[C@@](C(=O)N[C@@H](Cc4ccccc4Cl)C(=O)N[C@@H](Cc4csc5ccccc45)C(=O)N[C@@H](CCC(N)=O)C(N)=O)(C3)NC(=O)[C@H](CC(C)C)NC(=O)[C@H](Cc3ccccc3)NC(=O)CNC(=O)C(C)(C)NC(=O)[C@H](Cc3cccc(C(=O)O)c3)NC(=O)[C@H](CC(=O)O)NC1=O)NC(=O)[C@H](CC(C)(C)C)NC(=O)[C@H](CC(=O)O)NC2=O (stereo partly drawn) [I-1689, Ac-PL3-Asp-Npg-B5-Asp-3COOHF-Aib-Gly-Phe-Leu-PyrS2-2C1F-BztA-Gln-NH2]
4.89 | 7.96 | CC(=O)N1CCC[C@]12CC=CCCCC1(CCCC=CCCCOC(=O)N3CC[C@@](C(=O)N[C@@H](Cc4ccccc4Cl)C(=O)N[C@@H](Cc4csc5ccccc45)C(=O)N[C@@H](CCC(N)=O)C(N)=O)(C3)NC(=O)[C@H]([C@@H](C)O)NC(=O)[C@H](Cc3ccccc3)NC(=O)[C@H](C)NC(=O)CNC(=O)[C@H](CN(CC(=O)O)CC(F)(F)F)NC(=O)[C@H](CC(=O)O)NC1=O)NC(=O)[C@H](CC(C)(C)C)NC(=O)[C@H](CC(=O)O)NC2=O (stereo partly drawn) [I-1691, Ac-PL3-Asp-Npg-B5-Asp-TfeGA-Gly-Ala-Phe-Thr-PyrS2-2C1F-BztA-Gln-NH2]
4.98 | 7.77 | CCCC[C@@H]1NC(=O)[C@H](CN(CC(=O)O)CC(F)(F)F)NC(=O)[C@H](CC(=O)O)NC(=O)C2(CCCC=CCCCOC(=O)N3CC[C@@](C(=O)N[C@@H](Cc4ccccc4Cl)C(=O)N[C@@H](Cc4csc5ccccc45)C(=O)N[C@@H](CCC(N)=O)C(N)=O)(C3)NC(=O)[C@H]([C@@H](C)O)NC(=O)[C@H](Cc3ccccc3)NC(=O)[C@H](C)NC1=O)CCCC=CC[C@]1(CCCN1C(C)=O)C(=O)N[C@@H](CC(=O)O)C(=O)N[C@@H](CC(C)(C)C)C(=O)N2 (stereo partly drawn) [I-1692, Ac-PL3-Asp-Npg-B5-Asp-TfeGA-nLeu-Ala-Phe-Thr-PyrS2-2C1F-BztA-Gln-NH2]
5.34 | 8.00 | CC(=O)N1CCC[C@]12CC=CCCCC1(CCCC=CCCCOC(=O)N3CC[C@@](C(=O)N[C@@H](Cc4ccccc4Cl)C(=O)N[C@@H](Cc4csc5ccccc45)C(=O)N[C@@H](CCC(N)=O)C(N)=O)(C3)NC(=O)[C@H]([C@@H](C)O)NC(=O)[C@H](Cc3ccccc3)NC(=O)[C@H](C)NC(=O)C(C)(C)NC(=O)[C@H](CN(CC(=O)O)CC(F)(F)F)NC(=O)[C@H](CC(=O)O)NC1=O)NC(=O)[C@H](CC(C)(C)C)NC(=O)[C@H](CC(=O)O)NC2=O (stereo partly drawn) [I-1693, Ac-PL3-Asp-Npg-B5-Asp-TfeGA-Aib-Ala-Phe-Thr-PyrS2-2C1F-BztA-Gln-NH2]
4.36 | 7.24 | CC(=O)N1CCC[C@]12CC=CCCCC1(CCCC=CCCCOC(=O)N3CC[C@@](C(=O)N[C@@H](Cc4ccccc4Cl)C(=O)N[C@@H](Cc4csc5ccccc45)C(=O)N[C@@H](CCC(N)=O)C(N)=O)(C3)NC(=O)[C@H]([C@@H](C)O)NC(=O)[C@H](Cc3ccccc3)NC(=O)CNC(=O)[C@H](C)NC(=O)[C@H](CN(CC(=O)O)CC(F)(F)F)NC(=O)[C@H](CC(=O)O)NC1=O)NC(=O)[C@H](CC(C)(C)C)NC(=O)[C@H](CC(=O)O)NC2=O (stereo partly drawn) [I-1694, Ac-PL3-Asp-Npg-B5-Asp-TfeGA-Ala-Gly-Phe-Thr-PyrS2-2C1F-BztA-Gln-NH2]
< 4.70 | 7.03 | CCCC[C@@H]1NC(=O)[C@H](CN(CC(=O)O)CC(F)(F)F)NC(=O)[C@H](CC(=O)O)NC(=O)C2(CCCC=CCCCOC(=O)N3CC[C@@](C(=O)N[C@@H](Cc4ccccc4Cl)C(=O)N[C@@H](Cc4csc5ccccc45)C(=O)N[C@@H](CCC(N)=O)C(N)=O)(C3)NC(=O)[C@H]([C@@H](C)O)NC(=O)[C@H](Cc3ccccc3)NC(=O)CNC1=O)CCCC=CC[C@]1(CCCN1C(C)=O)C(=O)N[C@@H](CC(=O)O)C(=O)N[C@@H](CC(C)(C)C)C(=O)N2 (stereo partly drawn) [I-1695, Ac-PL3-Asp-Npg-B5-Asp-TfeGA-nLeu-Gly-Phe-Thr-PyrS2-2C1F-BztA-Gln-NH2]
4.45 | 7.49 | CC(=O)N1CCC[C@]12CC=CCCCC1(CCCC=CCCCOC(=O)N3CC[C@@](C(=O)N[C@@H](Cc4ccccc4Cl)C(=O)N[C@@H](Cc4csc5ccccc45)C(=O)N[C@@H](CCC(N)=O)C(N)=O)(C3)NC(=O)[C@H]([C@@H](C)O)NC(=O)[C@H](Cc3ccccc3)NC(=O)CNC(=O)C(C)(C)NC(=O)[C@H](CN(CC(=O)O)CC(F)(F)F)NC(=O)[C@H](CC(=O)O)NC1=O)NC(=O)[C@H](CC(C)(C)C)NC(=O)[C@H](CC(=O)O)NC2=O (stereo partly drawn) [I-1696, Ac-PL3-Asp-Npg-B5-Asp-TfeGA-Aib-Gly-Phe-Thr-PyrS2-2C1F-BztA-Gln-NH2]
< 4.70 | 6.75 | CC(=O)N1CCC[C@]12CCCCCCC1(CCCCCCCCCOC(=O)N3CC[C@@](C(=O)N[C@@H](Cc4ccsc4)C(=O)N[C@@H](Cc4csc5ccccc45)C(=O)N[C@@H](CCC(N)=O)C(N)=O)(C3)NC(=O)[C@H](CC(C)C)NC(=O)[C@H](Cc3ccccc3)NC(=O)[C@H](C)NC(=O)[C@H](C)NC(=O)[C@H](CN(CC(=O)O)CC(F)(F)F)NC(=O)[C@H](CC(=O)O)NC1=O)NC(=O)[C@H](CC(C)(C)C)NC(=O)[C@H](CC(=O)O)NC2=O (stereo partly drawn) [I-1697, Ac-PL3-Asp-Npg-B5-Asp-TfeGA-Ala-Ala-Phe-Leu-PyrS3-3Thi-BztA-Gln-NH2]
